Read-outs that look alike come from different tables or passages of the source.
Legend:
[1] = tested on: Phosphorylation of ERK½ in MIA PaCa-2 cells; experiment: Phospho-ERK½ MSD Assay in MIA PaCa-2 cells; format: cell-based; conditions: 4 hours compound treatment, 10 ng/mL EGF for 10 min, read-out: p-ERK IC50 (MIA PaCa-2)
Summary of the method: (§1)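 MIA PaCa-2 or A549 cells (25,000/well, RPMI with 10% FBS) exposed to compound titration for 4 h at 37 °C, then stimulated with 10 ng/mL EGF for 10 min and lysed in RIPA. Phospho-ERK1/2 quantified by MSD whole-cell lysate immunoassay; IC50 from 4-parameter logistic fit.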

[2] = biological target: GDP-bound protein (aa 1-169), containing both G12C and C118A amino acid substitutions (Homo sapiens, UniProt P01116, C118A/G12C); experiment: Coupled Nucleotide Exchange Assay (SOS-mediated nucleotide exchange, AlphaScreen); format: biochemical; conditions: 2 hours compound pre-incubation
Summary of the method: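 AlphaScreen signal after SOS (aa 564-1049)/GTP-driven exchange (1 h) on GDP-loaded His-[…] G12C/C118A (aa 1-169), following a 2 h compound pre-incubation in HEPES pH 7.4 buffer with 10 mM MgCl2 and 0.01% Triton X-100. IC50s fitted by 4-parameter logistic model.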

[3] = tested on: Phosphorylation of ERK½ in A549 cells; experiment: Phospho-ERK½ MSD Assay in A549 cells; format: cell-based; conditions: 4 hours compound treatment, 10 ng/mL EGF for 10 min, read-out: p-ERK IC50 (A549)
Summary of the method: as §1

[4] = Homo sapiens, MIA PaCa-2, MIA PaCa-2 cells

GDP-bound protein (aa 1-169), containing both G12C and C118A amino acid substitutions, sequence (P01116 1-169 isoform P01116-2 G12C/C118A): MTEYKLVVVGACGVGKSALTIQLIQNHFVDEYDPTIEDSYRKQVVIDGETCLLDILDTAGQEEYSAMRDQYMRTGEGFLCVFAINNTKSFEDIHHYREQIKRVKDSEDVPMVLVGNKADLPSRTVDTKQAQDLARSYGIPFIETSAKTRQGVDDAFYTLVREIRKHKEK

Row | Structure (SMILES) | IC50 ([1]; MIA PaCa-2 cells) [µM] | Coupled exchange IC50 [2] [µM] | IC50 ([3]; Homo sapiens, A549, A549 cells) [µM] | IC50 [1, 4] [µM] | IC50 ([3]; A549 cells) [µM]
1 | C=CC(=O)N1CCN(c2nc(=O)n(-c3ccccc3C(C)C)c3cc(-c4c(O)cccc4F)c(Cl)cc23)CC1 [Example 8-1, 6-Chloro-7-(2-fluoro-6-hydroxyphenyl)-1-(2-(2-propanyl)phenyl)-4-(4-(2-propenoyl)-1-piperazanyl)-2(1H)-quinazolinone] | 0.211 | 0.542 | 62.3 | – | –
2 | C=CC(=O)N1CCN(c2nc(=O)n(-c3ccccc3C(C)C)c3cc(-c4c(O)cccc4F)c(Cl)cc23)[C@@H](C)C1 [Example 8-3, 6-chloro-7-(2-fluoro-6-hydroxyphenyl)-4-((2S)-2-methyl-4-(2-propenoyl)-1-piperazinyl)-1-(2-(2-propartyl)phenyl)-2(1H)-quinazolinone] | – | 0.783 | > 100 | 0.061 | –
3 | C=CC(=O)N1CCN(c2nc(=O)n(-c3c(CC)cccc3CC)c3nc(-c4c(O)cccc4F)c(Cl)cc23)[C@@H](C)C1 [Example 8-4, 6-chloro-1-(2,6-diethylphenyl)-7-(2-fluoro-6-hydroxyphenyl)-4-((2S)-2-methyl-4-(2 propenoyl)-1-piperazinyl)pyrido[2,3-d]pyrimidin-2(1H)-one] | – | 0.095 | > 33.3 | 0.017 | –
4 | C=CC(=O)N1CCN(c2nc(=O)n(-c3cnccc3C3CC3)c3cc(-c4c(O)cccc4F)c(Cl)cc23)CC1 [Example 8-5, 6-chloro-1-(4-cyclopropyl-3-pyridinyl)-7-(2 fluoro-6-hydroxyphenyl)-4-(4-(2-propenoyl)-1-piperazinyl)-2(1H)-quinazolinone] | – | 0.400 | > 100 | 2.41 | –
5 | C=CC(=O)N1CCN(c2nc(=O)n(-c3ccccc3C(C)C)c3nc(-c4c(O)cccc4F)c(Cl)cc23)[C@@H](C)C1 [Example 8-6, 6-chloro-7-(2-fluoro-6-hydroxyphenyl)-4-((2S)-2-methyl-4-(2-propenoyl)-1-piperazinyl)-1-(2-(2-propanyl)phenyl)pyrido[2,3-d]pyrimidin-2(1H)-one] | 0.012 | 0.100 | – | – | 69.9
6 | C=CC(=O)N1CCN(c2nc(=O)n(-c3ccccc3C(C)C)c3cc(-c4cc(O)cc(Cl)c4Cl)c(Cl)cc23)[C@@H](C)C1 [Example 9-1, 6-Chloro-7-(2,3-dichloro-5-hydroxyphenyl)-4-((2S)-2-methyl-4-(2-propenoyl)-1-piperazinyl)-1-(2-(2-propanyl)phenyl)-2(1H)-quinazolinone] | – | 0.155 | 57.4 | 0.052 | –
7 | C=CC(=O)N1CCN(c2nc(=O)n(-c3ccccc3C(C)C)c3cc(-c4cc(N)ccc4Cl)c(Cl)cc23)[C@@H](C)C1 [Example 9-3, 7-(5-amino-2-chlorophenyl)-6-chloro-4-((2S)-2-methyl-4-(2-propenoyl)-1-piperazinyl)-1-(2-(2-propanyl)phenyl)-2(1H)-quinazolinone] | – | 0.113 | 66.1 | 0.035 | –
8 | C=CC(=O)N1CCN(c2nc(=O)n(-c3cccc(C#N)c3)c3cc(-c4c(O)cccc4F)c(Cl)cc23)CC1 [Example 9-5, 3-(6-chloro-7-(2-fluoro-6-hydroxyphenyl)-2-oxo-4-(4-(2-propenoyl)-1-piperazinyl)-1(2H)-quinazolinyl)benzonitrile] | – | 1.33 | > 100 | 3.92 | –
9 | C=CC(=O)N1CCN(c2nc(=O)n(-c3ccncc3C3CC3)c3cc(-c4c(O)cccc4F)c(Cl)cc23)CC1 [Example 9-6, 6-chloro-1-(3-cyclopropyl-4-pyridinyl)-7-(2-fluoro-6-hydroxyphenyl)-4-(4-(2-propenoyl)-1-piperazinyl)-2(1H)-quinazolinone] | – | 0.237 | > 100 | 3.51 | –
10 | C=CC(=O)N1CCN(c2nc(=O)n(-c3ccncc3C3CC3)c3cc(-c4c(C)ccc5[nH]ncc45)c(Cl)cc23)[C@@H](C)C1 [Example 9-9, 6-chloro-1-(3-cyclopropyl-4-pyridinyl)-7-(5-methyl-1H-indazol-4-yl)-4-((2S)-2-methyl-4-(2-propenoyl)-1-piperazinyl)-2(1H)-quinazolinone] | – | 0.147 | 65.6 | 0.136 | –
11 | C=CC(=O)N1CCN(c2nc(=O)n(-c3ccccc3C(C)C)c3cc(-c4cccc(Cl)c4Cl)c(Cl)cc23)[C@@H](C)C1 [Example 9-10, 6-chloro-7-(2,3-dichlorophenyl)-4-((2S)-2-methyl-4-(2-propenoyl)-1-piperazinyl)-1-(2-(2-propanyl)phenyl)-2(1H)-quinazolinone] | – | 0.101 | 66.5 | 0.117 | –
12 | C=CC(=O)N1CCN(c2nc(=O)n(-c3ccccc3C(C)C)c3cc(-c4ccccc4Cl)c(Cl)cc23)[C@@H](C)C1 [Example 9-11, 6-chloro-7-(2-chlorophenyl)-4-((2S)-2-methyl-4-(2-propenoyl)-1-piperazinyl)-1-(2-(2-propanyl)phenyl)-2(1H)-quinazolinone] | – | 0.093 | 64 | 0.147 | –
13 | C=CC(=O)N1CCN(c2nc(=O)n(-c3c(CC)cccc3CC)c3nc(-n4nnc5ccccc54)c(Cl)cc23)[C@@H](C)C1 [Example 9-12, 7-(1H-benzotriazol-1-yl)-6-chloro-1-(2,6-diethylphenyl)-4-((2S)-2-methyl-4-(2-propenoyl)-1-piperazinyl)pyrido[2,3-d]pyrimidin-2(1H)-one] | – | 1.32 | > 100 | 1.29 | –
14 | C=CC(=O)N1CCN(c2nc(=O)n(-c3ccccc3C(C)C)c3cc(-c4cc(O)cc5ccccc45)c(Cl)cc23)CC1 [Example 9-13, 6-chloro-7-(3-hydroxy-1-naphthalenyl)-1-(2-(2-propanyl)phenyl)-4-(4-(2-propenoyl)-1-piperazinyl)-2(1H)-quinazolinone] | – | 0.306 | 12.8 | 0.078 | –
15 | C=CC(=O)N1CCN(c2nnc(-c3ccccc3OC)c3cc(-c4c(O)cccc4F)c(Cl)cc23)CC1 [Example 10-2, 1-(4-(7-chloro-6-(2-fluoro-6-hydroxyphenyl)-4-(2-methoxyphenyl)phthalazin-1-yl)piperazin-1-yl)prop-2-en-1-one] | – | 1.93 | > 100 | 36.1 | –
16 | C=CC(=O)N1CCN(c2nnc(-c3cc(Cl)ccc3C)c3cc(-c4c(O)cccc4F)c(Cl)cc23)CC1 [Example 10-3, 1-(4-(7-chloro-4-(5-chloro-2-methylphenyl)-6-(2-fluoro-6-hydroxyphenyl)-1-phthalazinyl)-1-piperazinyl)-2-propen-1-one] | – | 1.10 | > 100 | 9.33 | –
17 | C=CC(=O)N1CCN(c2nnc(-c3ccccc3C(C)C)c3cc(-c4c(O)cccc4F)c(Cl)cc23)CC1 [Example 10-4, 1-(4-(7-chloro-6-(2-fluoro-6-hydroxyphenyl)-4-(2-(2-propanyl)phenyl)-1-phthalazinyl)-1-piperazinyl)-2-propen-1-one] | – | 0.235 | > 100 | 3.47 | –
18 | C=CC(=O)N1CCN(c2nnc(-c3ccccc3CC)c3cc(-c4c(O)cccc4F)c(Cl)cc23)CC1 [Example 10-5, 1-(4-(7-chloro-4-(2-ethylphenyl)-6-(2-fluoro-6-hydroxyphenyl)-1-phthalazinyl)-1-piperazinyl)-2-propen-1-one] | – | 0.297 | > 100 | 3.41 | –
19 | C=CC(=O)N1CCN(c2nnc(-c3cnccc3C)c3cc(-c4c(O)cccc4F)c(Cl)cc23)CC1 [Example 10-6, 1-(4-(7-chloro-6-(2-fluoro-6-hydroxyphenyl)-4-(4-methyl-3-pyridinyl)-1-phthalazinyl)-1-piperazinyl)-2-propen-1-one] | – | 1.20 | > 100 | 6.07 | –
20 | C=CC(=O)N1CCN(c2nnc(-c3c(C)cccc3C)c3cc(-c4c(O)cccc4F)c(Cl)cc23)CC1 [Example 10-7, 1-(4-(7-Chloro-4-(2,6-dimethylphenyl)-6-(2-fluoro-6-hydroxyphenyl)-1-phthalazinyl)-1-piperazinyl)-2-propen-1-one] | – | 0.533 | > 100 | 9.2 | –
21 | C=CC(=O)N1CCN(c2nnc(-c3cccnc3C)c3cc(-c4c(O)cccc4F)c(Cl)cc23)CC1 [Example 10-8] | – | 1.34 | > 100 | 12.9 | –
22 | C=CC(=O)N1CCN(c2nnc(-c3cccc4[nH]ccc34)c3cc(-c4c(O)cccc4F)c(Cl)cc23)CC1 [Example 10-9, 1-(4-(7-chloro-6-(2-fluoro-6-hydroxyphenyl)-4-(1H-indol-4-yl)-1-phthalazinyl)-1-piperazinyl)-2-propen-1-one] | – | 1.68 | > 100 | 33.6 | –
23 | C=CC(=O)N1CCN(c2nnc(-c3ccccc3C3CC3)c3cc(-c4c(O)cccc4F)c(Cl)cc23)CC1 [Example 10-10, 1-(4-(7-chloro-4-(2-cyclopropylphenyl)-6-(2-fluoro-6-hydroxyphenyl)-1-phthalazinyl)-1-piperazinyl)-2-propen-1-one] | – | 0.359 | > 100 | 6.85 | –

Source: patent US11285135B2 (AMGEN INC., priority 2016, dated 2022)
